Measurements as given in patent US4593106A, “4-[2-(dialkylamino)ethyl]-7-hydroxyisatins” (SmithKline Beckman Corporation, priority 1984, dated 1986).
Like-named read-outs stand apart in the source and are kept apart here.

Key:
[1] = target: T1, D2 (Oryctolagus cuniculus, UniProt G1T1Q0); test: perfused rabbit ear artery test for D2-agonist activity
T1 construct: perfused rabbit ear artery test; from tissue; host or cells: perfused rabbit ear artery (sympathetic nerve terminals)

[2] = test system: D2 -receptors; test: peripheral D2-agonist selectivity (general statement, no test named); details: main locus of action at presynaptic dopaminergic receptors or sympathetic nerve terminals

T1 sequence (G1T1Q0 1-443): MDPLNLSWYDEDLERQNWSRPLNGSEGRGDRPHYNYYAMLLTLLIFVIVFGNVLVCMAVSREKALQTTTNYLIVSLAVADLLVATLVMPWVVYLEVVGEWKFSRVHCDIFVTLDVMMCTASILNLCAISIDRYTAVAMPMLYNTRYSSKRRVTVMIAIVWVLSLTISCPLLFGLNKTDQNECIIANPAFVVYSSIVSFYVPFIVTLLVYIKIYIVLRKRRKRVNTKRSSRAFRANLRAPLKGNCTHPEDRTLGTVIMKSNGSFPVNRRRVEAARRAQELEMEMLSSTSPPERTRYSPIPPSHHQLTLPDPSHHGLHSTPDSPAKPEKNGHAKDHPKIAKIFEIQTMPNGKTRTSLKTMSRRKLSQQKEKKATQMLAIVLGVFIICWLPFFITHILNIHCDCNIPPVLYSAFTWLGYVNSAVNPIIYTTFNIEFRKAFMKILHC

Compound	EC50 [1]	selective peripheral D2-agonist [2]	EC50 ([1]; perfused rabbit ear artery test, D2-agonist activity, read-out: EC50)
Br.CCCN(CCC)CCc1ccc(O)c2c1C(=O)C(=O)N2 [4-[2-(di-n-propylamino)ethyl]-7-hydroxyisatin hydrobromide]	2 to 7 nM	selective peripheral D2 -agonists	
CCCN(CCC)CCc1ccc(O)c(O)c1 [N,N-di-n-propyldopamine, reference compound]			50 to 60 nM
